How the values were obtained:
[1] = target: T1, ATP-dependent translocase ABCB1 (Homo sapiens, UniProt P08183); test: TP_TRANSPORTER: inhibition of Rhodamine 123 transport in 3T3-G185 cells; format: functional, cell-based
[2] = target: T1, ATP-dependent translocase ABCB1; test: TP_TRANSPORTER: inhibition of Daunorubicin transport in 3T3-G185 cells; format: functional, cell-based

T1 sequence (P08183 whole entry): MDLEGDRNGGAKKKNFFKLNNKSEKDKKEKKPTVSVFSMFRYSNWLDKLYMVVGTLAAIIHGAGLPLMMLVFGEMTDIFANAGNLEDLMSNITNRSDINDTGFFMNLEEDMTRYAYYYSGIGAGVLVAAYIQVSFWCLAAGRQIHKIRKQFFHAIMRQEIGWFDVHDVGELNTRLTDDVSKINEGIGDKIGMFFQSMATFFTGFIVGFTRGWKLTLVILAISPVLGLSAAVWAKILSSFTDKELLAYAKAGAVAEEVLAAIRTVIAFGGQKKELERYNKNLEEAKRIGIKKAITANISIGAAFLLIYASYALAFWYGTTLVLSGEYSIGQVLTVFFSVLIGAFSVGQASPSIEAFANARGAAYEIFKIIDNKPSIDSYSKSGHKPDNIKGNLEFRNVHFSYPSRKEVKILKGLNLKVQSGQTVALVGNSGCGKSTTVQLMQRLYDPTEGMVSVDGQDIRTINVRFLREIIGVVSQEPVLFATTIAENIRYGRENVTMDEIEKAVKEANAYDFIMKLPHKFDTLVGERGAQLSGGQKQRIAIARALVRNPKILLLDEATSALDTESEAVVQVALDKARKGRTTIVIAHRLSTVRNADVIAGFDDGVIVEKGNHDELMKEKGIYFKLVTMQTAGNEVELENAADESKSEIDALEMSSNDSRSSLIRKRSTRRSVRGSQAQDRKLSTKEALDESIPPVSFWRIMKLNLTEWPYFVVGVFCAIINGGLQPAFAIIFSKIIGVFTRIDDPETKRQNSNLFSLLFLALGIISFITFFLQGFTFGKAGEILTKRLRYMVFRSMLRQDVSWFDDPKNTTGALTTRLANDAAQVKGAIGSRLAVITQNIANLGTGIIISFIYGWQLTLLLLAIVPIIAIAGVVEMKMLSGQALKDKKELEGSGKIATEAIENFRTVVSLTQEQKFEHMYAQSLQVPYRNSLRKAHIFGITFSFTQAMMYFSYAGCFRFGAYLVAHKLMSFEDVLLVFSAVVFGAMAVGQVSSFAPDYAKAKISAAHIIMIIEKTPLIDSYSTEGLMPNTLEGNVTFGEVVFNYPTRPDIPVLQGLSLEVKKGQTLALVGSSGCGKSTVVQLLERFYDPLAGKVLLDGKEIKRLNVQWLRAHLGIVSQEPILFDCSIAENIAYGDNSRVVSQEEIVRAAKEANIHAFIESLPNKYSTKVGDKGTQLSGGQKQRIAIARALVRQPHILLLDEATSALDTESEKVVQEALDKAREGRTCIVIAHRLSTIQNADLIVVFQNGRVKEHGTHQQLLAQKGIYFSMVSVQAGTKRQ

SMILES: CC(C)c1c(C(=O)Nc2ccccc2)c(-c2ccccc2)c(-c2ccc(F)cc2)n1CC[C@@H](O)C[C@@H](O)CC(=O)O [ATORVASTATIN]
- IC50 [1]: 307 µM
- IC50 [2]: 271 µM

From ChEMBL document CHEMBL2073743, “HMG-CoA reductase inhibitors (statins) characterized as direct inhibitors of P-glycoprotein” (Pharm Res, 2001)
